Columns and labels:
[1] = Diarrhea Assay; format: in vivo, male Charles River rats; settings: in vivo
[2] = test system: diarrhea; test: Diarrhea Assay; format: in vivo, male Charles River rats

SMILES | selectivity ratio ([1]; ratio of rat diarrhea ED50 to Pavlov pouch antisecretory ED50, read-out: Thrapeutic Index ED50 diarrhea/ED50 antisecretory) | Diarrhea Assay Rat (iv) ED50 ([2]; Rat (iv) per table head, method text: intragastric, fasted rats, up to eight hours) [mg/kg] | TD50 ([1]; Rat (iv) per table head, method text: intragastric, fasted rats, up to eight hours, read-out: Diarrhea Assay Rat (iv) ED50) [mg/kg] | Diarrhea Assay Rat (iv), result in words ([2]; Rat (iv), at 3200 mcg/kg)
COC(=O)CC/C=C\CC[C@H]1C(=O)C[C@@H](O)[C@@H]1/C=C/CC(C)(O)/C=C/C1=CCCC1 (relative stereo) [Example 1, methyl 7-[3α-hydroxy-2β-(4-hydroxy-4-methyl-6-(1'-cyclopentenyl)-1,5-trans,trans-hexadienyl)-5-oxocyclopentane]-1-α-hept-4-cis-enoate] | 160000 | 3.2 | – | –
COC(=O)CC/C=C\CC[C@H]1C(=O)C[C@@H](O)[C@@H]1/C=C/CC(C)(O)/C=C/C=C(C)C (relative stereo) [Example 2] | – | – | 3.2 | inactive
